ChEMBL document CHEMBL1131486, “Synthesis and pharmacological evaluation of ring-methylated derivatives of 3,4-(methylenedioxy)amphetamine (MDA)” (J Med Chem, 1998)
The source made the active and inactive calls. No cut-off for these calls is given here.

Tests used:
[1] = target: T1, Norepinephrine transporter (Rattus norvegicus, UniProt Q9WTR4); assay: (§1) Compound was tested for the ability to inhibit [3H]norepinephrine binding to Norepinephrine transporter in rat synaptosomes; type: subcellular, Brain
Rattus norvegicus [2] = organism: Rattus norvegicus; assay: Effective dose for drug discrimination assay in rats using DOIas training drug.; type: functional
[3] = selectivity is the ratio between IC50 values of 5-HTand DA
[4] = target: Sodium-dependent serotonin transporter (Rattus norvegicus, UniProt P31652); assay: Activity towards Serotonin transporter was determined by the ability to inhibit [3H]5-HT uptake in rat synaptosomes; type: subcellular, Brain
Rattus norvegicus [5] = organism: Rattus norvegicus; assay: Effective dose for drug discrimination assay in rats using MMAI as training drug.; type: functional
Rattus norvegicus [6] = organism: Rattus norvegicus; assay: Effective dose for drug discrimination assay in rats using LSD as training drug.; type: functional
Rattus norvegicus [7] = organism: Rattus norvegicus; assay: Compound was tested for its ability to inhibit [3H]dopamine uptake in rat synaptosomes; type: functional; conditions: Brain
Rattus norvegicus [8] = organism: Rattus norvegicus; assay: Effective dose for drug discrimination assay in rats using (+)-Amphitamine as training drug; NS = No substitution; type: functional, organism-based
Rattus norvegicus [9] = organism: Rattus norvegicus; assay: Effective dose for drug discrimination assay in rats using (+)-MBDB as training drug.; type: functional
Rattus norvegicus [10] = organism: Rattus norvegicus; assay: Effective dose for drug discrimination assay in rats using (+)-MBDB as training drug; type: functional
[11] = target: T1, Norepinephrine transporter; assay: as §1; type: functional, subcellular, Brain
Rattus norvegicus [12] = organism: Rattus norvegicus; assay: Effective dose for drug discrimination assay in rats using DOI as training drug.; type: functional
Rattus norvegicus [13] = organism: Rattus norvegicus; assay: Effective dose for drug discrimination assay in rats using LSD as training drug; type: functional
Rattus norvegicus [14] = organism: Rattus norvegicus; assay: Effective dose for drug discrimination assay in rats using (+)-amphetamine as training drug; type: functional

T1 sequence (Q9WTR4 whole entry): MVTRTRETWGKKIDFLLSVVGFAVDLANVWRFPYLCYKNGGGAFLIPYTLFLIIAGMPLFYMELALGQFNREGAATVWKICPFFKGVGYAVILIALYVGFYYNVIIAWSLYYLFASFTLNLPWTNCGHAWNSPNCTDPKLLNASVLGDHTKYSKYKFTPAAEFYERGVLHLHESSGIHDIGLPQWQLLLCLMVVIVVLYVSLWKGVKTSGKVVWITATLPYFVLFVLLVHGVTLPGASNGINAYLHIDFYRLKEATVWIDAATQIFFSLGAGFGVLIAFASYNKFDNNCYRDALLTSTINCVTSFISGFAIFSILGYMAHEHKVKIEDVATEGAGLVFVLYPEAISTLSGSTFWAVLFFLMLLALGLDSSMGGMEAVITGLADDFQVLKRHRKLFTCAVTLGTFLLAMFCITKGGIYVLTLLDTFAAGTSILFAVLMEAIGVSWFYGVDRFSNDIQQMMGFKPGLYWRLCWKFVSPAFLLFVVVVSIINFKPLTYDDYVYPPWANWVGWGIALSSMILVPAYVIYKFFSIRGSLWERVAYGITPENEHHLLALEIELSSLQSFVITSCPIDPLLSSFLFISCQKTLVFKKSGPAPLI
Sodium-dependent serotonin transporter, sequence (P31652 whole entry): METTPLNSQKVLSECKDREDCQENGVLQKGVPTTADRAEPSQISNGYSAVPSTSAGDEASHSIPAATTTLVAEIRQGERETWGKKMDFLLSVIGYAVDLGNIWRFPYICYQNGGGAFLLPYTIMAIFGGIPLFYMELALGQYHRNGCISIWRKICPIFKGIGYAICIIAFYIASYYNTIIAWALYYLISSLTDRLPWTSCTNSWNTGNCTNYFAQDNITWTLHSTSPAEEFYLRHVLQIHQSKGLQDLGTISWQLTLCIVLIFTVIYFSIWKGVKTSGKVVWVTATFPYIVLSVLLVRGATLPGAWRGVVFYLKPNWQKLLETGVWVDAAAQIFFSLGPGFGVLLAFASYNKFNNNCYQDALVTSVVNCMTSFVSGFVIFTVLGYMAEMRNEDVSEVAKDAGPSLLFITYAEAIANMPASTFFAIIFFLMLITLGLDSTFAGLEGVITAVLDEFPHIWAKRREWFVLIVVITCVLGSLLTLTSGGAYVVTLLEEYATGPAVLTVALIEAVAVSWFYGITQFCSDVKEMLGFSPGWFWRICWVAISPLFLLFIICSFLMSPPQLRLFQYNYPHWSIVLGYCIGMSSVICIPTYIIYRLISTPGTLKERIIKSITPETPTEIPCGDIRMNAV

Row | Structure (SMILES) | IC50 [1] [µM] | Selectivity [3] | IC50 [4] [µM] | ED50 (Rattus norvegicus [5]) [µmol/kg] | IC50 (Rattus norvegicus [7]) [µM] | ED50 (Rattus norvegicus [8]) | other results
1 | Cc1cc(CC(C)N)cc2c1OCO2 (stereo not drawn) | 1.49 | 108 | 0.107 | 1.53 | 11.6 | inactive | ED50 (Rattus norvegicus [2]): 2.11 µmol/kg; ED50 (Rattus norvegicus [6]): 8.72 µmol/kg; ED50 (Rattus norvegicus [9]): 2 µmol/kg
2 | CSc1ccc(CC(C)N)cc1 (stereo not drawn) [4-METHYLTHIOAMPHETAMINE] | 2.38 | 42 | 0.074 | – | 3.07 | – | –
3 | Cc1cc2c(cc1CC(C)N)OCO2 (stereo not drawn) | 4.6 | 36 | 0.783 | 7.65 | 28.3 | inactive | ED50 (Rattus norvegicus [10]): 17.4 µmol/kg; ED50 (Rattus norvegicus [2]): 8.72 µmol/kg; ED50 (Rattus norvegicus [6]): 17.4 µmol/kg
4 | Cc1c(CC(C)N)ccc2c1OCO2 (stereo not drawn) | – | 129 | 0.093 | 1.71 | 12 | inactive | ED50 (Rattus norvegicus [2]): 1.7 µmol/kg; ED50 (Rattus norvegicus [6]): 4.1 µmol/kg; IC50 [11]: 1.94 µM; ED50 (Rattus norvegicus [9]): 1.83 µmol/kg
5 | COc1cc(CC(C)N)c(OC)cc1I (stereo not drawn) | – | – | – | – | – | – | ED50 (Rattus norvegicus [12]): 0.3 µmol/kg
6 | CCN(CC)C(=O)[C@@H]1C=C2c3cccc4[nH]cc(c34)C[C@H]2N(C)C1 [LYSERGIDE] | – | – | – | – | – | – | ED50 (Rattus norvegicus [13]): 0.04 µmol/kg
7 | CC(N)Cc1ccc(I)cc1 (stereo not drawn) [p-IODOAMPHETAMINE] | 0.993 | 7 | 0.082 | – | 0.589 | – | –
8 | COc1cc2c(cc1C)CC(N)C2 (stereo not drawn) | – | – | – | 1.83 | – | – | –
9 | C[C@H](N)Cc1ccccc1 [DEXTROAMPHETAMINE] | – | – | – | – | – | – | ED50 (Rattus norvegicus [14]): 1.06 µmol/kg
10 | CC(N)Cc1ccc2c(c1)CCC2 (stereo not drawn) | 0.849 | 23 | 0.082 | – | – | – | –
11 | CC(N)Cc1ccc2c(c1)OCO2 (stereo not drawn) [TENAMFETAMINE] | 0.266 | 2 | 0.478 | – | 0.89 | inactive | ED50 (Rattus norvegicus [9]): 2.07 µmol/kg
